Data reported in patent publication US20120225123A1, “Use of Synergistic Combinations of an Avermectin and an Antineoplastic Compounds for the Treatment of Hematological Malignancies” (UNIVERSITY HEALTH NETWORK, priority 2009, published 2012).
pEC50: −log10 of the molar value.

Columns and labels:
primary AML samples = assay: Clonogenic (methylcellulose colony forming) assay, primary AML; type: cell-based, human; details: ivermectin 6 μM; in 3/6 primary AML samples
Procedure: To assess clonogenic growth, primary AML cells or granulocyte colony-stimulating factor (G-CSF) mobilized PBSCs (4×10^5/mL) were treated with IVM or buffer control for 24 hours. After treatment, cells were washed and 10^5 cell/mL were plated in duplicate in MethoCult GF H4434 medium (StemCell Technologies, Vancouver, BC) containing 1% methycellulose in IMDM, 30% FCS, 1% bovine serum albumin, 3 U/mL of recombinant human erythropoietin, 10^−4 M of 2-mercaptoethanol, 2 mM of L-glutamine, 50 ng/mL of recombinant human stem cell factor, 10 ng/mL of GM-CSF, and 10 ng/mL of rh IL-3. Alternatively, primary cells were plated directly into MethoCult GF H4434 medium with ivermectin. Seven days (AML samples) or 14 days (normal PBCS) after plating, the number of colonies containing 10 or more cells for AML or over 100 cells for normal samples was counted as previously described.^14
Ivermectin was also evaluated in clonogenic assays in primary normal hematopoietic and AML cells. Ivermectin (6 μM) had minimal effects on the clonogenic growth of normal hematopoetic cells (n=3) with <15% reduction in clonogenic growth. In contrast, ivermectin reduced clonogenic growth by ≧40% in 3/6 primary AML samples (FIG. 1D). Similar effects were noted when primary cells were directly plated into clonogenic assays with ivermectin (FIG. 1G).

[1] = system: OCI-AML2, K562 and MDAY-D2 leukemia cells in NOD/SCID mice; assay: Mouse models of leukemia, subcutaneous tumors, oral ivermectin; type: in vivo
Procedure: MDAY-D2 murine leukemia cells, and K562 and OCI-AML2 human leukemia cells (2.5×10^5) were injected subcutaneously into both flanks of sub-lethally irradiated (3.5 Gy) NOD/SCID mice (Ontario Cancer
Institute, Toronto, ON). Four (OCI-AML2), five (MDAY-D2), or seven (K562) days after injection, once tumors were palpable, mice were then treated daily for 10 days (K562) or treated with 8 doses over 10 days (OCI-AML2) with IVM (3 mg/kg) by oral gavage in water or vehicle control (n=10 per group). […] Tumor volume (tumor length x width^2×0.5236) was measured three times a week using calipers. Fourteen (MDAY-D2), 15 (OCI-AML2) or 17 (K562) days after injection of cells, mice were sacrificed, tumors excised and the volume and weight of the tumors were measured.
Given the effects of IVM as a potential anti-leukemic agent, IVM was evaluated in mouse models of leukemia. Human leukemia (OCI-AML2 and K562) and murine leukemia (MDAY-D2) cells (MDAY-D2, OCI-AML2 and K562) were injected subcutaneously into the flank of NOD/SCID mice. Four (OCI-AML2), five (MDAY-D2), or seven (K562) days after injection, once tumors were palpable, mice were then treated daily for 10 days (K562) or treated with 8 doses over 10 days (OCI-AML2) with IVM (3 mg/kg) by oral gavage in water or vehicle control (n=10 per group). […] Tumor volume and weight was measured over time.

[2] = system: panel of 5 leukemia cell lines; assay: Cell growth and viability by MTS assay in a panel of leukemia cell lines; type: cell-based; details: 72 hours, read-out: EC50, decreased viability
Procedure: Cell growth and viability was assessed by the MTS assay (Promega, Madison, Wis.) according to the manufacturer's instructions and as previously described.^12 Cell death was measured by Annexin V-fluoroscein isothiocyanate (FITC) and Propidium Iodide (PI; Biovision Research Products, Mountain View, Calif.) staining and flow cytometry according to the manufacturer's instructions and as previously described.^13 To identify CD34+ cells, a normal PBSC sample was co-stained with PE-anti-CD34+ (Beckman Coulter, Marseille France), and APC-anti-CD45 (Becton Dickenson, San Jose Calif.).
Having identified IVM in the chemical screens, the effects of IVM on cell growth and viability was tested in a panel of leukemia, cell lines. The effects of ivermectin on cell growth and viability in a panel of 5 leukemia cell lines were tested. Cells were treated with increasing concentrations of ivermectin and 72 hours after incubation, cell growth and viability were assessed by the MTS assay. Ivermectin decreased the viability of the tested leukemia cell lines with an EC50 of approximately 5 μM (FIG. 1B). The loss of viability was detected at 24 hours after treatment and increased in a time dependent manner. Cell death and apoptosis were confirmed by Annexin V and PI staining (FIG. 1C). […] (FIG. 1F).

[3] = system: STAT1 expression in DU145 and PPC-1 cells; assay: Gene expression by Q-RT-PCR, DU145 and PPC-1; type: cell-based, human
Procedure: Gene expression changes were evaluated in OCI AML2, 0937, HL60, DU145 and PPC-1 cells by real-time Q-RT-PCRas described previously^15, 47. The expression level of STAT1A, STAT1B, TRIM22, OAS1 and IFIT3 before and after incubation of leukemia cells with ivermectin was evaluated.

monkeys = details: oral; cited from earlier work
DU145 cells = assay: Intracellular chloride (SPQ) and cell size (forward light scatter), DU145; type: cell-based, human; details: 10 μM IVM, 2 hours
Procedure: Intracellular chloride concentration was measured using a fluorescent indicator for chloride, SPQ as previously described.^16 Upon binding halide ions like chloride, SPQ is quenched resulting in a decrease in fluorescence without a shift in wavelength. […] After 15 minutes of incubation with SPQ, cells were diluted 15:1 in HBSS and centrifuged. The supernatant was removed, cells were resuspended in 200 μl of fresh HBSS and incubated for 15 minutes in 37° C. to allow recovery from the hypotonic shock. Cells were then stained with propidium iodide and SPQ fluorescence in the PI negative cells was determined using an LSR-II flow cytometer (Beckton Dickonson, San Jose, Calif.) (excitation 351 nm, emission 485 nm). In parallel, changes in cell size were determined by measuring forward light scatter by flow cytometry. Results were analyzed with FlowJo version 8.8 (TreeStar, Ashland, Oreg.).

dogs = details: oral; cited from earlier work

ivermectin
reduction in clonogenic growth (primary AML samples): ≥ 40%
tolerability ([1]; MDAY-D2 mice, dosage escalated 3 to 6 mg/kg): well tolerated
decrease in tumor weight and volume compared to buffer control ([1]; oral gavage 3 mg/kg (MDAY-D2 escalated to 6 mg/kg), all 3 models, p<0.05): up to 70%
gross organ toxicity ([1]; oral ivermectin, all 3 models): without any gross organ toxicity
pEC50 [2]: ~5.30
STAT1 expression [3]: did not show changes in STAT1 expression
LD50 (monkeys): above 24 mg/kg
chloride influx (DU145 cells): chloride influx was not observed
LD50 (dogs): ~80 mg/kg
